Legend:
Format in all cases: biochemical
Conditions in all cases: 20 nM
PDE4A1A = biological target: T1, PDE4A1A (Homo sapiens, UniProt P27815); test: PDE4 inhibitory activity assay (FAM-cAMP enzymatic reaction), PDE4A1A
T1 construct: purchased BPS 60040
In short: (§1)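 Read-out: fluorescence-based detection of FAM-cAMP turnover on a multilabel counter, with IC50 derived by fitting inhibition rates. The reaction ran 30 min at room temperature after a 15-min enzyme–compound preincubation, followed by stopping and 60 min further incubation.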

PDE4B1 = biological target: T2, PDE4B1 (Homo sapiens, UniProt Q07343); test: PDE4 inhibitory activity assay (FAM-cAMP enzymatic reaction), PDE4B1
T2 construct: purchased BPS 60041
T2 sequence (Q07343 whole entry): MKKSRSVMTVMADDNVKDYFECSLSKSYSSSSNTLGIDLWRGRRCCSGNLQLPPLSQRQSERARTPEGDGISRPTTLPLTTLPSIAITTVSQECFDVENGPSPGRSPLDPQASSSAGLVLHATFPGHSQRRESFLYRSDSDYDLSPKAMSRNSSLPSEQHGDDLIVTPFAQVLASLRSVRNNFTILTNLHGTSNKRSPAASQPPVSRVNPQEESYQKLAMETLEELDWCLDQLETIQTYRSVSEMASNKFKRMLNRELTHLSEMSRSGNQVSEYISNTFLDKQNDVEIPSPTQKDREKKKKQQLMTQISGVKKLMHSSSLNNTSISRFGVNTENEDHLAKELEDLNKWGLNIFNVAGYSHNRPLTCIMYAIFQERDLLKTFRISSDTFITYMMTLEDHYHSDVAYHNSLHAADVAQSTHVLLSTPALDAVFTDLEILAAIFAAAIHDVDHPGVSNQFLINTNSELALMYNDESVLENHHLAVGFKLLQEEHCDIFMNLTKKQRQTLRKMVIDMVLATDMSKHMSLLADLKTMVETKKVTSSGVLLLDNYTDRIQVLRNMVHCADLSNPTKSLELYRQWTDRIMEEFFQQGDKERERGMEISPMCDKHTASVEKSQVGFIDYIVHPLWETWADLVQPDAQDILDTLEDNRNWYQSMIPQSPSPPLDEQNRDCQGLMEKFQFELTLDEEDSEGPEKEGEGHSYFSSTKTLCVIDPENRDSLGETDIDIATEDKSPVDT
In short: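 Each isoform is incubated with test compound for 15 min at room temperature before FAM-cAMP substrate starts a 30-min reaction.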

PDE4D2 = PDE4D2 (Homo sapiens, UniProt Q08499); test: PDE4 inhibitory activity assay (FAM-cAMP enzymatic reaction), PDE4D2
Sequence of PDE4D2 (Q08499 303-809): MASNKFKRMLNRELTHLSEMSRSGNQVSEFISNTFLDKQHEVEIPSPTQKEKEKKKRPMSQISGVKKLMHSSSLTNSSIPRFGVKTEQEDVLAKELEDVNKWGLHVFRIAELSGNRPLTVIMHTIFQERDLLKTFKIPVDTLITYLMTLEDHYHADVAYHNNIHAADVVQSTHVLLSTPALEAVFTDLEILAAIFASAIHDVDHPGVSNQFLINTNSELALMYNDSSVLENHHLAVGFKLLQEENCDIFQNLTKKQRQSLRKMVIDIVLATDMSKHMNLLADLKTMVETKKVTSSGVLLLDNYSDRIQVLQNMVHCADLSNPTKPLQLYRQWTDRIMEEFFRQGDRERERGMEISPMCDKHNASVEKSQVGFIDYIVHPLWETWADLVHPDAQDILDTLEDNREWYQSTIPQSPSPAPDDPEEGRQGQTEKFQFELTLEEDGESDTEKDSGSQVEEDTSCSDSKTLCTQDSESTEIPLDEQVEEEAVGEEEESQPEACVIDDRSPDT
In short: as §1

T1 sequence (P27815 1-647 isoform P27815-4): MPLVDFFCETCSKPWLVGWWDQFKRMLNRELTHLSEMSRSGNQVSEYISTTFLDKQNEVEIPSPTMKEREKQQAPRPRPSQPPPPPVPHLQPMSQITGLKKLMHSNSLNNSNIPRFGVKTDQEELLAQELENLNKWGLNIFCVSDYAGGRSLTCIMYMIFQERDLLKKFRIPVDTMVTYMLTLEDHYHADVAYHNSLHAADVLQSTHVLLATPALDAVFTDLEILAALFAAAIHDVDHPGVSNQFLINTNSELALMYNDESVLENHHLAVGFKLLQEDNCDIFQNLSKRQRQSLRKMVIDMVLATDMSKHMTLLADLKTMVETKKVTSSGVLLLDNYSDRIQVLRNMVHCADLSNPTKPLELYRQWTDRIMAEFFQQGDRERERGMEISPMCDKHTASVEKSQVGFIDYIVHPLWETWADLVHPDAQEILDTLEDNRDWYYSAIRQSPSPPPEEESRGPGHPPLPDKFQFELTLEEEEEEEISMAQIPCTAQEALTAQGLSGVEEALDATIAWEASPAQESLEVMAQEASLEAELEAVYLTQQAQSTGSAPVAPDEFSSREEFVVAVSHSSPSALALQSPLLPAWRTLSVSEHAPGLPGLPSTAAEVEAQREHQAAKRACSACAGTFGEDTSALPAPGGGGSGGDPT

CCOc1nc([C@@H](CS(C)(=O)=O)n2c(=O)[nH]c3cc(-c4cc(F)c(F)cc4F)ccc32)ccc1OC [Ex. 158, (S)-5-(2,4,5-trifluorophenyl)-1-(1-(6-ethoxy-5-methoxypyridin-2-yl)-2-(methylsulfonyl)ethyl)-1H-benzo[d]imidazol-2(3H)-one]
+: PDE4 A1 inhibitory effect at 20 nM (PDE4A1A) | PDE4 B1 inhibitory effect at 20 nM (PDE4B1) | PDE4 D2 inhibitory effect at 20 nM (PDE4D2)

CCOc1nc([C@@H](CS(C)(=O)=O)n2c(=O)[nH]c3c(C)c(-c4cc(C)ccc4C)cnc32)ccc1OC [Ex. 32, (S)-6-(2,5-dimethylphenyl)-3-(1-(6-ethoxy-5-methoxypyridin-2-yl)-2-(methylsulfonyl)ethyl)-7-methyl-1H-imidazo[4,5-b]pyridin-2(3H)-one]
+: PDE4 A1 inhibitory effect at 20 nM (PDE4A1A) | PDE4 B1 inhibitory effect at 20 nM (PDE4B1) | PDE4 D2 inhibitory effect at 20 nM (PDE4D2)

CCOc1nc([C@@H](CS(C)(=O)=O)n2c(=O)[nH]c3cc(-c4ccccc4Cl)ccc32)ccc1OC [Ex. 142, (S)-5-(2-chlorophenyl)-1-(1-(6-ethoxy-5-methoxypyridin-2-yl)-2-(methylsulfonyl)ethyl)-1H-benzo[d]imidazol-2(3H)-one]
+: PDE4 A1 inhibitory effect at 20 nM (PDE4A1A) | PDE4 B1 inhibitory effect at 20 nM (PDE4B1) | PDE4 D2 inhibitory effect at 20 nM (PDE4D2)

CCOc1nc([C@@H](CS(C)(=O)=O)n2c(=O)n(C)c3cc(-c4ccccn4)ccc32)ccc1OC [Ex. 196, (S)-1-(1-(6-ethoxy-5-methoxypyridin-2-yl)-2-(methylsulfonyl)ethyl)-3-methyl-5-(pyridin-2-yl)-1H-benzo[d]imidazol-2(3H)-one]
+: PDE4 A1 inhibitory effect at 20 nM (PDE4A1A) | PDE4 B1 inhibitory effect at 20 nM (PDE4B1) | PDE4 D2 inhibitory effect at 20 nM (PDE4D2)

CCOc1nc([C@@H](CS(C)(=O)=O)n2c(=O)[nH]c3cc(-c4cccc(OC)c4F)ccc32)ccc1OC [Ex. 183, (S)-5-(2-fluoro-3-methoxyphenyl)-1-(1-(6-ethoxy-5-methoxypyridin-2-yl)-2-(methylsulfonyl)ethyl)-1H-benzo[d]imidazol-2(3H)-one]
+: PDE4 A1 inhibitory effect at 20 nM (PDE4A1A) | PDE4 B1 inhibitory effect at 20 nM (PDE4B1) | PDE4 D2 inhibitory effect at 20 nM (PDE4D2)

CCOc1nc([C@@H](CS(C)(=O)=O)n2c(=O)n(C)c3cc(-c4cc(F)ccc4C)ccc32)ccc1OC [Ex. 172, (S)-5-(5-fluoro-2-methylphenyl)-1-(1-(6-ethoxy-5-methoxypyridin-2-yl)-2-(methylsulfonyl)ethyl)-3-methyl-1H-benzo[d]imidazol-2(3H)-one]
+: PDE4 A1 inhibitory effect at 20 nM (PDE4A1A) | PDE4 B1 inhibitory effect at 20 nM (PDE4B1) | PDE4 D2 inhibitory effect at 20 nM (PDE4D2)

Reference: patent publication US20230141101A1, “PDE4 INHIBITOR COMPOUND AND MEDICAL USE THEREOF” (Suzhou Longbotai Pharmaceuticals Co., Ltd., priority 2020, published 2023)
